Consider one compound from patent US10413535B2, “Pharmaceutical compositions comprising an integrin ALPHA4 antagonist for use in treating ocular inflammatory conditions” (AXEROVISION, INC., priority 2015, dated 2019).

In one data set the target is T1, α4β1-VCAM-1 (Homo sapiens, UniProt P05556+P13612).
T1 construct: characterized in human J6 cells which express VLA-4; endogenous in cells; host or cells: Jurkat J6 cells (human lymphoblast cell line)
Description: VCAM cell adhesion assay, Jurkat J6 cells. In kind it is cell-based. To be noted: J6 cells to VCAM-1; read-out: Inhibition of cell adhesion (IC50). The procedure:
(§1) Jurkat J6 cells (human lymphoblast cell line) were grown as a suspension culture in RPMI 1640 supplemented with FCS (10%) and glutamine (2 mM). RPMI8866 cells (human B lymphoid cell line) were grown as a suspension culture in RPMI 1640 supplemented with FCS (10%) and glutamine (2 mM). RBL-2H3 cells (rat basophilic cell line) were cultured in Eagle's MEM plus Earles salts supplemented with 2 mM L-glutamine, 1 mM sodium pyruvate, 1× non-essential amino acids, 1 mM Na pyruvate 10% heat inactivated foetal calf serum.
(§2) Polystyrene 96-well microtitre plates were coated with IgG at a concentration of 0.05 mg/mL in bicarbonate buffer for 2 hours at 37° C. The solution was aspirated and the plates washed twice with PBS. The plates were then incubated overnight at 4° C. with a 1:4000 dilution of VCAM-1 of 3% BSA in PBS. Prior to use the VCAM-1 was aspirated and the plates washed twice with PBS.
(§3) J6 or RPMI cells (as required) were labelled with the fluorescent dye BCECF-AM (10 μM and 6×10^6 cells/mL) for 10 min at 37° C. before the excess was removed by centrifugation at 500 g for 5 min and the cells resuspended at a cell concentration of 1.2×10^7 cells/mL in HBSS. Equal volumes HBSS containing the compound of formula I (over concentration range 38.1 pM to 10 μM) and cells were added to the VCAM-1 coated plates. […] The plates were counted in a Wallac Viktor.

Data set [1] deals with RPMI 8866 binding to VCAM-1. The data set is described as follows: VCAM cell adhesion assay, RPMI 8866 cells. To be noted: Homo sapiens; RPMI 8866 cells to VCAM-1; read-out: Inhibition of cell adhesion (IC50). In kind it is cell-based. The procedure: as §1, §2, §3
In data set [2] the test system is 53 receptors and 4 transporters. The data set is described as follows: MDS Pharma screen, radioligand binding assays. To be noted: at 10 μM.
The test system of a further data set is conjunctival CD4 T cells. Description: Conjunctival T cell infiltration (CD4 immunohistochemistry), desiccating stress model. In kind it is in vivo, mouse. To be noted: topical 30 mg/mL, 60 μg per eye, 5 days DS. On the procedure:
Female C57BL/6 mice, aged 6 to 8 weeks, were subjected to DS for 5 days (DS5) as described previously (de Paiva et al., 2006b; Niederkorn et al., 2006). Topical bilateral treatment with 1 eye drop per eye (2 μL volume) or subcutaneous injection (4 μL volume), 2 times per day, was initiated on day 1 concurrently with DS and continued through day 4. Treatment with the compound of formula I or dexamethasone phosphate 0.1% was compared to correspondingly treated vehicle controls. Mice were randomized to receive one of the test articles. […] Treatment effects were assessed on corneal staining with Oregon Green Dextran (OGD); expression of inflammatory markers in ocular surface tissues by real time PCR; cell population analysis in draining cervical lymph nodes by FACS analysis; conjunctival T cell infiltration by immunohistochemistry.
For immunohistochemistry, the eyes and adnexa of 5 mice/group (n=5) were excised, embedded in optimal cutting temperature (OCT compound; VWR, Suwanee, Ga.), and flash frozen in liquid nitrogen. […] Positively stained cells were counted in the goblet cell rich area of the conjunctiva, over a length of at least 500 μm in the epithelium for a distance of 500 μm using image-analysis software (NIS Elements Software, version 3.0, BR, Nikon). […]

A short description of data set [3]: PK study in rabbits, ocular tissue concentrations (LC-MS/MS). To be noted: for Tmax: topical or ocular, both studies; for concentration at 6 h: persisted up to 6 hours. In kind it is in vivo, New Zealand White rabbits. The procedure:
The potassium salt of GW559090, referred to herein as GW559090A, was given to male New Zealand White rabbits by topical ocular administration as a single bilateral drop (Study #1: n=2 rabbits/4 eyes per time point; Study #2: n=3 rabbits/6 eyes per time point). At designated times (0.5, 1, 3, 6 hours post administration), ocular tissues were collected and processed for analysis. Concentrations of GW559090 were measured in cornea and bulbar conjunctiva by liquid chromatography with tandem mass spectrometry (LC-MS/MS).

Setting [4] is: male, New Zealand White, rabbit, conjunctiva, topical, 40 μL (50 mg/mL) GW559090A, read-out: Conjunctival tissue concentration.
Setting [5] is: male, New Zealand White, rabbit, cornea, topical, 40 μL (50 mg/mL) GW559090A, read-out: Corneal tissue concentration.
Setting [6] is: single topical 40 μL (50 mg/mL) GW559090A.

Read-outs that look alike come from different tables or passages of the source.

T1 sequence (P13612 34-1032): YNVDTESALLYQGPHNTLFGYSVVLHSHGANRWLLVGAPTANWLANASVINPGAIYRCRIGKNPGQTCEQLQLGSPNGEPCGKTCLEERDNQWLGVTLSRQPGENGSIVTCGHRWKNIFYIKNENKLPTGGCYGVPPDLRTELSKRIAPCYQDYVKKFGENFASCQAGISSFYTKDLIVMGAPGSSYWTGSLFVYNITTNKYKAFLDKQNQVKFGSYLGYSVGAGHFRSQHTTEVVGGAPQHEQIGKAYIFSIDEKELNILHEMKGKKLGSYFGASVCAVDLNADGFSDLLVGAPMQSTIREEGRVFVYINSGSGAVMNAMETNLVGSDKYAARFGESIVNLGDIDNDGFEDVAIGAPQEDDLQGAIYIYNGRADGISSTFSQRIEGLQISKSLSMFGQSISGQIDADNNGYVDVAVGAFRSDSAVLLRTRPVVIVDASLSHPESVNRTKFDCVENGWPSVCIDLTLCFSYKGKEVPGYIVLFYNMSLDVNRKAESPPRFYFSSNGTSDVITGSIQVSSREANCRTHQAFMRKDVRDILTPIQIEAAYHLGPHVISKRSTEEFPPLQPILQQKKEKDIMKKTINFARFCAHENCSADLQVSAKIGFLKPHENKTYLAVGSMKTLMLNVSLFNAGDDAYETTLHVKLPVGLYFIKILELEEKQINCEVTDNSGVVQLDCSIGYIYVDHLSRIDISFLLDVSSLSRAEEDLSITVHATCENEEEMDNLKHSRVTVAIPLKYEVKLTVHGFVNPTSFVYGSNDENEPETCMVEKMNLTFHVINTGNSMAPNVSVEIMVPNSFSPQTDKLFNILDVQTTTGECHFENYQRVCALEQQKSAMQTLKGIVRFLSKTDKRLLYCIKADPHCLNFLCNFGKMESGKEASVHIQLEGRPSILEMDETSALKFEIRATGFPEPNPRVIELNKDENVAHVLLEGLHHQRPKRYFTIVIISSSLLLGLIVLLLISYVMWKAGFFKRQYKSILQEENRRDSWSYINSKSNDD
T1 sequence (P05556 21-798): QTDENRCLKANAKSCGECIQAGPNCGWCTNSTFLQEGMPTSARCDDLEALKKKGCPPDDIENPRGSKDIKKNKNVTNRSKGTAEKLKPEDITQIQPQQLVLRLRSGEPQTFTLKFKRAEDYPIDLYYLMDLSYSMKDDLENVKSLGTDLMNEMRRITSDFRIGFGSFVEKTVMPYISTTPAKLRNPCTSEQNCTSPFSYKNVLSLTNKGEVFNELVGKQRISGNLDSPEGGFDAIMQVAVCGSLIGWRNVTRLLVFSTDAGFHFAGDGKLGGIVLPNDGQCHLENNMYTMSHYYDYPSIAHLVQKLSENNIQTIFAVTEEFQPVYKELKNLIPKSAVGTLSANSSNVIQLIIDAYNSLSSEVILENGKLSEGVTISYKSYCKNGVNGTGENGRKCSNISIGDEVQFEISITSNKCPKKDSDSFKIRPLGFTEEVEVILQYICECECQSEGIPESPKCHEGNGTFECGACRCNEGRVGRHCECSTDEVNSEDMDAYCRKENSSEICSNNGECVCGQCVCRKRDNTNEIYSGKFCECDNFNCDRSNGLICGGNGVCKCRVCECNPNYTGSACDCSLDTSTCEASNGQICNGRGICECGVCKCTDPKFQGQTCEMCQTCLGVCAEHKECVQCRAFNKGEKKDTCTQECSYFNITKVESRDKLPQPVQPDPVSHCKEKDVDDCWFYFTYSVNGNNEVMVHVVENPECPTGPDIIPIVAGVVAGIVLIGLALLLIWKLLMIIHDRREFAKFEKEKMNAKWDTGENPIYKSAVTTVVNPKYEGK

As a reminder, the IC50 is the concentration that gives 50% inhibition. As usually defined, the Tmax is the time at which the peak concentration occurs. Consider `Cc1ccccc1OCC(=O)N[C@@H](CC(C)C)C(=O)N[C@@H](Cc1ccc(OC(=O)N2CCC(C(N)=O)CC2)cc1)C(=O)O` [GW559090, (2S)-3-[4-({[4-(Aminocarbonyl)-1-piperidinyl]carbonyl}oxy)phenyl]-2-[((2S)-4-methyl-2-{[2-(2-methylphenoxy)acetyl]amino}pentanoyl)amino]propanoic acid], for which the half-inhibitory concentration (IC50) on α4β1-VCAM-1 stood at 7.72 nM; in data set [1], 4.81 nM. The “Inhibition in radioligand binding assays” value in data set [2] was “No significant inhibition”. In addition, in the data set on conjunctival CD4 T cells, the “Conjunctival T cell infiltration (cell density)” value is recorded as “decreases”. Moreover, in data set [3] (3 and 6 hour postdose), the “Mean cornea concentrations versus mean conjunctiva concentrations” value is “higher”. The Tmax turned out to be 60 min in data set [3] (male, New Zealand White, rabbit, bulbar conjunctiva, single topical 40 μL (50 mg/mL) GW559090A, read-out: Tmax in bulbar conjunctiva) and 30 min in data set [3] (male, New Zealand White, rabbit, cornea, single topical 40 μL (50 mg/mL) GW559090A, read-out: Tmax in cornea). In addition, the concentration at 30 min in data set [3] (setting [4]) and in data set [3] (setting [5]) was above 3000 ng/mL each time. The concentration at 6 h in data set [3] (setting [4]) and in data set [3] (setting [5]) was around 358 ng/mL throughout. In data set [3] (male, New Zealand White, rabbit, cornea, topical, at 3 hours, 40 μL (50 mg/mL) GW559090A, read-out: Corneal tissue concentration), the concentration at 3 h is above 1000 ng/mL. Also, the “Mean conjunctiva concentrations quantifiable through” value in data set [3] (setting [6]) worked out at 6 h. Besides, the “Mean cornea concentrations quantifiable through” value in data set [3] (setting [6]) was determined as 6 h.
